Data reported in patent publication US20100137676A1, “N-ACETYLCYSTEINE AMIDE (NAC AMIDE) FOR TREATMENT OF OXIDATIVE STRESS ASSOCIATED WITH INFERTILITY” (priority 2005, published 2010).

Columns and labels:
[1] = test system: porcine oocytes; experiment: Glutathione assay: intracellular GSH concentration per oocyte after supplementation of maturation medium; type: cell-based; details: supplementation 1.0 mM; for GSH concentration/oocyte: porcine oocytes, control 3.19
Description: (§1) This Example describes an evaluation of the effects of NAC amide, glutathione (GSH) and N-acetylcysteine (NAC) supplementation to incubation and culture media during porcine oocyte maturation, fertilization and embryo culture on various measures of fertilization and embryo development, as well as on the intracellular concentration of GSH.
(§2) Experimental Design: Three trials were conducted, each trial utilizing 30 porcine oocytes per treatment group (90 total oocytes per each of four treatment groups). Oocytes were purchased from Trans Ova Genetics, Sioux City, Iowa. Treatment groups were: 1) Control (no supplemental anti-oxidants); 2) GSH supplementation (1.0 mM); 3) NAC supplementation (1.0 mM); and 4) NAC amide supplementation (1.0 mM).
(§3) In vitro Maturation: Oocytes were maturated for 20 to 24 hours in tissue culture medium 199 with Earle's salts, 0.01 U/mL LH and FSH, 10 ng/mL EGF, antibiotics, and 10% fetal calf serum under mineral oil (Specialty Media, Phillipsburg, N.J.) at 39° C. in an atmosphere of 5% CO2 and then for an additional 20 to 24 h without hormones.
Glutathione Assay: Oocytes were washed in PBS, frozen, and ruptured using a blunt glass rod in phosphoric acid. The assay was performed as described previously (B. D. Whitaker and J. W. Knight, 2004, Theriogenology, 62:311-322) and the amount of GSH was determined using a standard curve of concentration GSH versus rate of change in absorbency.

[2] = test system: porcine oocytes / embryos; experiment: Embryo development to 2-cell and blastocyst stage after IVF in supplemented media (Example 1); type: cell-based; details: for % embryos reaching 2-cell stage of development / % embryos reaching blastocyst stage of development (of those in observed in the 2-cell stage): supplementation 1.0 mM, IVF; for % embryos reaching 2-cell stage of development: control 19; for % embryos reaching blastocyst stage of development (of those in observed in the 2-cell stage): culture to blastocyst stage, control 40
Description: as §1, §2, §3
(§4) In vitro Fertilization (IVF) of Oocytes: Cumulus cells by were removed by agitation with 0.1% hyaluronidase, washed and placed in Tris-fertilization medium (113.1 mM NaCl, 3 mM KCl, 7.5 mM CaCl2.2H2O, 20 mM Tris, 11 mM D (+)-glucose, 5 mM sodium pyruvate, 1 mg/mL BSA, 2 mM caffeine) with mineral oil overlay and freeze-thawed spermatozoa were added at a concentration of 2000 spermatozoa/oocyte. The gametes were incubated at 39° C. in an atmosphere of 5% CO2 for approximately 6 hours.
In vitro Culture: Putative zygotes were washed and incubated in NCSU-23 culture medium (108.73 mM NaCl, 4.78 mM KCl, 1.19 mM KH2PO4, 1.19 mM MgSO4.7H2O, 5.5 mM glucose, 1 mM glutamine, 7 mM taurine 5 mM hypotaurine, 25.07 mM NaHCO3, 1.7 mM CaCl2.2H2O, 75 μg/mL Penicillin G, 50 μg/mL Streptomycin, 4 mg/mL BSA, pH 7.4) with mineral oil overlay at 39° C. in an atmosphere of 5% CO2 for 48 hours. After 48 hours, embryos that had undergone the first cell division were placed in fresh NCSU 23 culture media in the same manner as described above until blastocyst formation, 144 hours post-IVF.
The remaining zygotes were cultured through the blastocyst stage of development ([…]) in their respective media and their development and viability progress was recorded (Table 2). NAC amide supplementation of the culture medium enhanced the development of zygotes to the 2-cell stage and further aided the subsequent final percentage of those embryos reaching the 2-cell stage that continued development onto the blastocyst stage (the endpoint of in vitro analysis).

[3] = test system: porcine putative zygotes; experiment: In vitro fertilization parameter evaluation by nuclear staining of putative zygotes; type: cell-based; details: 12 hours after IVF; n=4 zygotes per group; preliminary, subjective
Description: as §2, §4
In vitro Fertilization Parameter Evaluation: Fertilization was analyzed 12 hours after IVF by fixing the oocytes on a microscope slide with 25% (v:v) acetic acid in ethanol at room temperature for 48 hours. Oocytes were stained with 1% orcein in 45% (v:v) acetic acid and examined using a phase-contrast microscope at 400× magnification.
Fertilization parameters were subjectively examined by nuclear staining samples (n=4) of putative zygotes from each of the treatment groups 12 hours after IVF was complete (Illustration 1, * indicates pronucleus). In the preliminary analysis, only a small number of zygotes were subjected to staining, since the intent of the studies described herein was to assess the number of zygotes that continued development to the 2-cell and blastocyst stages. This analysis was simply to see if any obvious anomalies were occurring.

[4] = test system: porcine oocytes / embryos; experiment: Embryo development after IVF with NAC amide supplementation (Example 4); type: cell-based; details: of 70 oocytes
Source text: (§5) This Example investigates the effects of NAC amide supplementation to culture media during porcine oocyte maturation, fertilization, and embryo culture on intracellular concentrations of GSH after oocyte maturation, IVF parameters, success of intracytoplasmic sperm injection (ICSI), and embryo development following ICSI and pronuclear microinjection.
(§6) All chemicals, unless otherwise specified, were obtained from Sigma Chemical Company (St. Louis, Mo.) and were of embryo grade quality. Dr. Glenn Goldstein and associates provided the NAC amide. Oocytes (BoMed, Madison, Wis.) were maturated for 20 to 24 h in tissue culture medium 199 supplemented with Earle's salts, 0.01 U/mL LH and FSH, antibiotics, and 10% fetal calf serum under mineral oil (Specialty Media, Phillipsburg, N.J.) at 39° C. in an atmosphere of 5% CO2 and then for an additional 20 to 24 h without hormones.
as §4, with “Cumulus” for “In vitro Fertilization (IVF) of Oocytes: Cumulus”, “cells” for “cells by”, “D(+)-glucose,” for “D (+)-glucose,”, “frozen-thawed” for “freeze-thawed”, “h. […]” for “hours.”

[5] = cell-free system; cited from earlier work
[6] = test system: porcine oocytes / embryos; experiment: Embryo development after intracytoplasmic sperm injection (ICSI) with NAC amide supplementation (Example 4); type: cell-based; details: of 24 oocytes
Source text: as §5, §6
Cumulus cells were removed by agitation with 0.1% hyaluronidase, washed and placed in microdrops of NCSU-23 culture medium (108.73 mM NaCl, 4.78 mM KCl, 1.19 mM KH2PO4, 1.19 mM MgSO4.7H2O, 5.5 mM glucose, 1 mM glutamine, 7 mM taurine 5 mM hypotaurine, 25.07 mM NaHCO3, 1.7 mM CaCl2.2H2O, 75 μg/mL Penicillin G, 50 μg/mL Streptomycin, 4 mg/mL BSA, pH 7.4) with mineral oil overlay at 39° C. after centrifugation at 15000×g. Frozen-thawed sperm were then placed in an adjacent microdrop. […]

[7] = test system: mammalian red blood cells (RBCs); details: cited from earlier work

| Compound | intracellular GSH concentration, statistical comparison with control ([1]; P<0.05) | GSH concentration/oocyte [1] | % embryos reaching 2-cell stage of development [2] | % embryos reaching blastocyst stage of development (of those in observed in the 2-cell stage) [2] | changes on fertilization events (nuclear staining) [3] | # of Embryos reaching blastocyst stage of development ([4]; control 6 of 67) | # of Embryos reaching 2-cell stage of development ([4]; control 10 of 67) | greater increase in intracellular GSH compared with supplementation of GSH per se [1] | greater intracellular GSH concentration compared with NAC supplementation [1] | increase in intracellular GSH concentration compared with control [1] | intracellular GSH concentration, statistical comparison with GSH ([1]; P<0.05) | % of embryos developing to the 2-cell and blastocyst stages, statistical comparison ([2]; 2-cell P<0.05, blastocyst P<0.10) | reaction with oxidized glutathione (GSSG) [5] | # of Embryos reaching blastocyst stage of development ([6]; control 2 of 25) | # of Embryos reaching 2-cell stage of development ([6]; control 5 of 25) | hemoglobin oxidation ([7]; RBCs) | tert.-butylhydroxyperoxide (BuOOH)-induced intracellular oxidation ([7]; RBCs) | restoration of thiol-depleted RBCs ([7]; externally applied, compared with NAC) |
| --- | --- | --- | --- | --- | --- | --- | --- | --- | --- | --- | --- | --- | --- | --- | --- | --- | --- | --- |
| CC(=O)N[C@@H](CS)C(=O)O [NAC, N-acetylcysteine] | significantly (P<0.05) higher than control | 6.00 pmol | 30% | 55% | did not have any noticeable changes | – | – | – | – | – | – | – | – | – | – | – | – | – |
| N-acetylcysteine amide [NAC amide] | significantly (P<0.05) higher than control | 7.03 pmol | 45% | 85% | did not have any noticeable changes | 12 | 22 | 40% | 15% | 2.2 fold | significantly (P<0.05) higher than GSH | significantly greater % of embryos | react with oxidized glutathione (GSSG) to generate reduced glutathione (GSH) | 5 | 12 | protected hemoglobin from oxidation | inhibit | significantly greater than that found using NAC |
| N[C@@H](CCC(=O)N[C@@H](CS)C(=O)NCC(=O)O)C(=O)O [GSH, glutathione] | – | 4.18 pmol | 25% | 40% | did not have any noticeable changes | – | – | – | – | – | – | – | – | – | – | – | – | – |
